Experimental data published in ChEMBL document CHEMBL1681714, “Organelle-selective energy transfer: a fluorescent indicator of intracellular environment” (Bioorg Med Chem Lett, 2011).

Key:
Conditions in all cases: 0.5 h; call rule not given here
[1] = Drug uptake in rat Clone 9 cells assessed as localization to endoplasmic reticulum after 30 mins by fluorescence microscopy; format: ADME, cell-based
[2] = Drug uptake in rat Clone 9 cells assessed as accumulation in cytoplasm after 30 mins by fluorescence microscopy; format: ADME, cell-based
[3] = Drug uptake in rat Clone 9 cells assessed as accumulation in mitochondria after 30 mins by fluorescence microscopy; format: ADME
[4] = Drug uptake in rat Clone 9 cells assessed as accumulation in lysosomes after 30 mins by fluorescence microscopy; format: ADME, cell-based
[5] = Drug uptake in rat Clone 9 cells assessed as accumulation in endoplasmic reticulum after 30 mins by fluorescence microscopy; format: ADME, cell-based

Drug uptake [1] | Drug uptake [2] | Drug uptake [3] | Drug uptake [4] | Drug uptake [5] | SMILES
Active | Active | Active | Active |  | COc1cc(C#Cc2ccc3c(c2)C(C)(C)C(/C=C/C=C2/N(CCCCCC(=O)O)c4ccccc4C2(C)C)=[N+]3C)ccc1C1=C2C(C)=CC(C)=[N+]2[B-](F)(F)n2c(C)cc(C)c21.[I-]
Active |  |  | Active | Active | COc1ccccc1C1=[N+]2C(=C(c3ccc(C#Cc4ccc(C5=[N+]6C(=Cc7c(C)c(S(=O)(=O)[O-])c(C)n7[B-]6(F)F)C(=O)N5C)cc4)cc3OCC(=O)O)c3ccc(-c4ccccc4OC)n3[B-]2(F)F)C=C1.[Na+]
